Our source for the MIC and EC50 values is patent US12173018B2, “Penicillin-binding protein inhibitors” (priority 2018, dated 2024).

SMILES strings stand for the structures. ≈ marks a conversion by molar mass, not a printed value. Read-outs that look alike come from different tables or passages of the source. Bounds are passed on as bounds.

For test [1], the system named is E. coli ATCC 25922. Briefly: Broth microdilution MIC, E. coli ATCC 25922. The test is classed as cell-based. The settings on record: Escherichia coli. Summed up: (§1)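 Following CLSI guidance, growth inhibition is measured in Mueller-Hinton broth with divalent cations. Inoculum 5×10^5 CFU/mL; incubation 16-20 hours, 37° C; endpoint is visual absence of growth.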
A general note: Broth dilution looks for growth in wells or tubes with falling amounts of substance.

Test [2] has as its system A. baumannii ATCC 19606. The experiment in a line: Broth microdilution MIC, A. baumannii ATCC 19606. The class given is cell-based. The settings on record: Acinetobacter baumannii. The protocol:
(§2) To determine the ability of test compounds to potentiate the inhibition of the growth of bacterial strains, classic cell based broth microdilution minimum inhibitory concentration (MIC) assays were employed. MIC assays are performed according to CLSI methods except where otherwise noted (CLSI, 2011 and CLSI, 2009). The reference type strain E. coli ATCC 25922, the wild-type parent strain E. coli AG100, the hyper-permeable E. coli 901C and E. coli D22 and the E. coli AG100A strain lacking the acrAB efflux pump encoding genes were used to determine the ability of the PBP inhibitors to penetrate the outer membrane of gram-negative bacteria and inhibit bacterial growth. […] The P. aeruginosa PAO1, P. aeruginosa ATCC 27853 and A. baumannii ATCC 19606, along with the hyper-permeable P. aeruginosa ATCC 35151 and an engineered efflux pump-compromised strain of P. aeruginosa (ΔmexAB-oprM) were used to determine the ability of PBP inhibitors to penetrate the outer membrane of P. aeruginosa and A. baumannii and assess antibacterial activity against these important gram-negative organisms.
(§3) Briefly, cryo-preserved bacterial cultures of challenge strains are streaked for isolation on appropriate agar medium, in this case Mueller Hinton II agar. Following incubation to allow growth of the colonies, plates are sealed with parafilm and stored refrigerated for up to two weeks. For preparation of assay inoculum and to ensure low variability, at least 5 colonies are picked from the agar plates with an inoculating loop and aseptically transferred to a culture tube containing 3 mL of Mueller-Hinton Broth (supplemented with divalent cations to required levels based on Manufacturers' certification). The broth culture is grown for 3-5 hours at 37° C. with shaking at 200 rpm. Meanwhile, 2-fold serial dilutions of test compounds are conducted in a 96 well plate with a final volume of 75 μL per well at 2-fold the final desired concentration. After the dilution plates are set up the growing cultures are then diluted in a cuvette containing MH II broth and the optical density is measured at 600 nm. The Inoculum is diluted such that 75 μL of this culture in Mueller-Hinton Broth results in a starting bacterial concentration of 5×10^5 CFU/mL when added to the dilution plates. The plates are incubated for 16-20 hours at 37° C. The MIC values are read visually as the lowest concentration well with no bacterial growth.

In test [3] the test system is P. aeruginosa (ΔmexAB-oprM). The experiment in a line: microbe, parasite or virus in culture. The test is classed as cell-based. The settings on record: Pseudomonas aeruginosa, read-out: MIC P. aeruginosa ΔmexAB-OprM. Summed up:
as §1

For test [4], the system named is P. aeruginosa ATCC 35151. Briefly: microbe, parasite or virus in culture. The conditions noted are these: Pseudomonas aeruginosa, ATCC35151; hyper-permeable P. aeruginosa ATCC 35151; read-out: MIC P. aeruginosa ATCC 35151. The class given is cell-based. In short, it runs like this:
as §1

The test system of test [5] is K. pneumoniae UMM. Briefly: microbe, parasite or virus in culture. The test is classed as cell-based. The conditions noted are these: Klebsiella pneumoniae; K. pneumoniae UMM producing SHV-5 and KPC-2; read-out: MIC K. pneumoniae UMM. Summed up:
as §1

In test [6] the test system is E. coli D22. Briefly: microbe, parasite or virus in culture. The test is classed as cell-based. The settings on record: Escherichia coli; hyper-permeable E. coli D22, broth microdilution; read-out: MIC E. coli D22. Summed up: as §1
Test [7] deals with E. coli AG100A. Briefly: microbe, parasite or virus in culture. The class given is cell-based. The settings on record: Escherichia coli, read-out: MIC E. coli AG100A. In short, it runs like this:
as §1

Test [8] relates to E. coli 901C. Briefly: microbe, parasite or virus in culture. The class given is cell-based. The settings on record: Escherichia coli; hyper-permeable E. coli 901C, broth microdilution; read-out: MIC E. coli 901C. Summed up:
as §1

Test [9] has as its system K. pneumoniae SI-117. Briefly: microbe, parasite or virus in culture. The test is classed as cell-based. The settings on record: Klebsiella pneumoniae, SI117, read-out: MIC K. pneumoniae SI-117. In short, it runs like this:
as §1

Test [10] deals with E. coli PBP3 (Escherichia coli (strain K12), UniProt P0AD68). The experiment in a line: E. coli PBP3 Bocillin-FL fluorescence polarization competition binding assay. Summed up: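 Polarization at 490/520 nm was monitored for 60 minutes in pH 8.0 Hepes buffer containing 300 mM NaCl and 5% glycerol, with compound spanning 0–1000 μM.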
Chain of E. coli PBP3 (P0AD68 whole entry): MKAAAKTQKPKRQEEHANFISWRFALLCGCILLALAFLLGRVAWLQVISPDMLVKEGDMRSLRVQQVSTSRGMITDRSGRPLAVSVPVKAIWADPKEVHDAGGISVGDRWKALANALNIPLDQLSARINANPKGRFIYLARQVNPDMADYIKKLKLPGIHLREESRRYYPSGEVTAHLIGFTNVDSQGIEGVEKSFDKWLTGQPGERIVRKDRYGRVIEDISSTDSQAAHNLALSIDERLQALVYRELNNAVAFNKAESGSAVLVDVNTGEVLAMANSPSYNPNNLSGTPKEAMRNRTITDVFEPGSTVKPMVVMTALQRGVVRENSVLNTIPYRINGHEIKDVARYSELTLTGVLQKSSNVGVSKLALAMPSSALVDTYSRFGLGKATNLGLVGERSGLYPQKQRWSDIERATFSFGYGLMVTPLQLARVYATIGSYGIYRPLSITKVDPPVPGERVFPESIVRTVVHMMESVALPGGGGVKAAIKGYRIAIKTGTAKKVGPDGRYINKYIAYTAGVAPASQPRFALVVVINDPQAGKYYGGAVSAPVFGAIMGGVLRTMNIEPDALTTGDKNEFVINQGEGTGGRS
Test [11] concerns K. pneumoniae 848844. Briefly: microbe, parasite or virus in culture. The test is classed as cell-based, Klebsiella pneumoniae. The settings on record: Klebsiella pneumoniae; K. pneumoniae 848844 producing SHV-11 and KPC-2; read-out: MIC K. pneumoniae 848844. Summed up: as §1
The subject of test [12] is P. aeruginosa PAO1. Briefly: Broth microdilution MIC, P. aeruginosa PAO1. The class given is cell-based. The settings on record: Pseudomonas aeruginosa. As for the experimental part:
as §2, §3

In test [13] the test system is E. coli AG100. The experiment in a line: Broth microdilution MIC, E. coli AG100 (wild-type parent). The class given is cell-based. The conditions noted are these: Escherichia coli; wild-type parent E. coli AG100, broth microdilution; read-out: MIC E. coli AG100. Summed up:
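Starting inoculum of 5×10^5 CFU/mL, from colonies grown 3-5 h in Mueller-Hinton broth with divalent cations, added to two-fold compound dilution series.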

In test [14] the test system is engineered strain of Escherichia coli harboring CTX-M15. The experiment in a line: microbe, parasite or virus in culture. The conditions noted are these: Escherichia coli, read-out: Microbiological Activity (MIC in mg/L), E. coli DH5α/pLBII-CTX-M15, engineered strain producing CTX-M15. The class given is cell-based.
Setting [15] is: ATCC25922, E. coli ATCC 25922, broth microdilution, read-out: MIC E. coli 25922.
Setting [16] is: ATCC19606, A. baumannii ATCC 19606, broth microdilution, read-out: MIC A. baumannii ATCC 19606.
The mark [17] stands for this setting: P. aeruginosa PAO1, broth microdilution, read-out: MIC P. aeruginosa PAO1.
[18] abbreviates: PAO1, read-out: MIC P. aeruginosa PAO1.
The mark [19] stands for this setting: fluorescence polarization competition binding with Bocillin-FL, read-out: E. coli K12 PBP3 Potency.

As for `CCN1CCN(C(=O)N[C@@H](C(=O)N[C@H]2Cc3cccc(C(=O)O)c3OB2O)c2ccc(S(N)(=O)=O)c(OC)c2)C(=O)C1=O` [Example 169, (R)-3-((R)-2-(4-ethyl-2,3-dioxopiperazine-1-carboxamido)-2-(3-methoxy-4-sulfamoylphenyl)acetamido)-2-hydroxy-3,4-dihydro-2H-benzo[e][1,2]oxaborinine-8-carboxylic acid], the MIC in test [1] (setting [15]) is 32 to 64 µg/mL; in test [2] (setting [16]), over 128 µg/mL; in test [3] it was 8 to 16 µg/mL; in test [4] it was 0.5 to 1 µg/mL; in test [5], over 128 µg/mL; in test [6], 2 to 4 µg/mL. Besides, the MIC is 8 to 16 µg/mL in [7]; under 0.25 µg/mL in test [8]; over 128 µg/mL in test [9]; over 128 µg/mL in test [11]; over 128 µg/mL in [12] (setting [17]); 32 to 64 µg/mL in [13]. This compound also returned an EC50 in test [10] of 30 to 500 µM.
For `CCN1CCN(C(=O)NC(C(=O)N[C@H]2Cc3cccc(C(=O)O)c3OB2O)c2ccc(OC)nc2Cl)C(=O)C1=O` (stereo partly drawn) [Example 65, (3R)-3-(2-(2-chloro-6-methoxypyridin-3-yl)-2-(4-ethyl-2,3-dioxopiperazine-1-carboxamido)acetamido)-2-hydroxy-3,4-dihydro-2H-benzo[e][1,2]oxaborinine-8-carboxylic acid], the MIC in test [3] is 32 to 64 µg/mL; in [4] it was 8 to 16 µg/mL; in [14] it was 128 to 256 mg/L (≈ 223 to 446 µM); in test [12] (setting [18]), over 128 µg/mL.
For the compound `CCN1CCN(C(=O)NC(C(=O)N[C@H]2Cc3c(F)cc(F)c(C(=O)O)c3OB2O)c2ccc(O)c(O)c2Cl)C(=O)C1=O` (stereo partly drawn) [Example 185, (3R)-3-(2-(2-chloro-3,4-dihydroxyphenyl)-2-(4-ethyl-2,3-dioxopiperazine-1-carboxamido)acetamido)-5,7-difluoro-2-hydroxy-3,4-dihydro-2H-benzo[e][1,2]oxaborinine-8-carboxylic acid], the MIC in test [1] (setting [15]) is 8 to 16 µg/mL; in test [2] (setting [16]) it was over 128 µg/mL; in test [3], 0.5 to 1 µg/mL; in test [4], under 0.25 µg/mL; in test [5], 2 to 4 µg/mL; in test [6] it was 2 to 4 µg/mL. The MIC was 2 to 4 µg/mL in [7]; 0.5 to 1 µg/mL in test [8]; 2 to 4 µg/mL in test [9]; 0.5 to 1 µg/mL in test [11]; over 128 µg/mL in test [12] (setting [17]); 2 to 4 µg/mL in test [13]. This compound showed an EC50 in test [10] of 30 to 500 µM.
As to `CCN1CCN(C(=O)NC(C(=O)N[C@H]2Cc3cccc(C(=O)O)c3OB2O)c2ccc(S(N)(=O)=O)cc2F)C(=O)C1=O` (stereo partly drawn) [Example 203, (3R)-3-(2-(4-ethyl-2,3-dioxopiperazine-1-carboxamido)-2-(2-fluoro-4-sulfamoylphenyl)acetamido)-2-hydroxy-3,4-dihydro-2H-benzo[e][1,2]oxaborinine-8-carboxylic acid], the MIC is 32 to 64 µg/mL in test [1] (setting [15]); over 128 µg/mL in test [2] (setting [16]); 8 to 16 µg/mL in test [3]; 0.5 to 1 µg/mL in test [4]; 32 to 64 µg/mL in test [5]; 2 to 4 µg/mL in [6]. For the same compound, the MIC in test [7] is 2 to 4 µg/mL; in test [8] it was under 0.25 µg/mL; in test [9] it was over 128 µg/mL; in test [11] it was over 128 µg/mL; in test [12] (setting [17]), over 128 µg/mL; in test [13] it was 32 to 64 µg/mL. For the same compound, the EC50 in test [10] (setting [19]) is under 30 µM.
`CCN1CCN(C(=O)NC(C(=O)N[C@H]2Cc3ccc(F)c(C(=O)O)c3OB2O)c2ccc(O)cn2)C(=O)C1=O` (stereo partly drawn) [Example 128, (3R)-3-(2-(4-ethyl-2,3-dioxopiperazine-1-carboxamido)-2-(5-hydroxypyridin-2-yl)acetamido)-7-fluoro-2-hydroxy-3,4-dihydro-2H-benzo[e][1,2]oxaborinine-8-carboxylic acid]: the MIC is 32 to 64 µg/mL in test [1] (setting [15]); over 128 µg/mL in test [2] (setting [16]); 8 to 16 µg/mL in test [3]; 0.5 to 1 µg/mL in test [4]; 8 to 16 µg/mL in test [5]; 2 to 4 µg/mL in test [6]. The MIC in [7] is 2 to 4 µg/mL; in test [8], 0.5 to 1 µg/mL; in [9], 8 to 16 µg/mL; in test [11], 32 to 64 µg/mL; in [12] (setting [17]) it was over 128 µg/mL; in test [13] it was 8 to 16 µg/mL. This compound also had an EC50 in test [10] of 30 to 500 µM.
As for `NS(=O)(=O)c1ccc([C@@H](NC(=O)N2CCN(CCBr)C(=O)C2=O)C(=O)N[C@H]2Cc3cccc(C(=O)O)c3OB2O)cc1O` [Example 172, (R)-3-((R)-2-(4-(2-bromoethyl)-2,3-dioxopiperazine-1-carboxamido)-2-(3-hydroxy-4-sulfamoylphenyl)acetamido)-2-hydroxy-3,4-dihydro-2H-benzo[e][1,2]oxaborinine-8-carboxylic acid], the MIC in test [1] (ATCC25922, read-out: MIC E. coli 25922) is 32 to 64 µg/mL; in test [2] (ATCC19606, read-out: MIC A. baumannii ATCC 19606) it was over 128 µg/mL; in [3] it was 2 to 4 µg/mL; in [4], under 0.25 µg/mL; in [5], 32 to 64 µg/mL; in [6], 8 to 16 µg/mL. Moreover, the MIC was 8 to 16 µg/mL in [7]; 0.5 to 1 µg/mL in test [8]; over 128 µg/mL in test [9]; over 128 µg/mL in [11]; over 128 µg/mL in test [12] (setting [18]); 32 to 64 µg/mL in test [13]. In addition, the EC50 in test [10] (setting [19]) was under 30 µM.
With `O=C(O)c1cccc2c1OB(O)[C@@H](NC(=O)C(NC(=O)N1C[C@H]3CCCN3C(=O)C1=O)c1ccc(O)c(O)c1Cl)C2` (stereo partly drawn) [Example 232, (3R)-3-(2-(2-chloro-3,4-dihydroxyphenyl)-2-((R)-3,4-dioxooctahydropyrrolo[1,2-a]pyrazine-2-carboxamido)acetamido)-2-hydroxy-3,4-dihydro-2H-benzo[e][1,2]oxaborinine-8-carboxylic acid], the MIC in test [1] (setting [15]) is over 128 µg/mL; in test [2] (setting [16]), over 128 µg/mL; in [3] it was under 0.25 µg/mL; in test [4] it was under 0.25 µg/mL; in [5], 32 to 64 µg/mL; in [6] it was 8 to 16 µg/mL. The MIC was in the range of 8 to 16 µg/mL in test [7]; 8 to 16 µg/mL in test [8]; 32 to 64 µg/mL in [9]; 8 to 16 µg/mL in test [11]; 32 to 64 µg/mL in test [12] (setting [17]); 8 to 16 µg/mL in test [13]. The compound also registered an EC50 in [10] of 30 to 500 µM.
